Measured values reported in publication PMC12818745 (ACS Chemical Neuroscience, 2025).

What was measured:
Aβ42 aggregation = target: T1, Aβ42 aggregation (Homo sapiens, UniProt P05067); test: Thioflavin S assay of Aβ42 aggregation in E. coli cells overexpressing Aβ42; type: cell-based, Escherichia coli; details: read-out: Aβ42 inhibition %
T1 construct: expressed in transfected cells; host or cells: E. coli BL21 (DE3), pET vector
Protocol: The antiaggregating profiles of both series A and B were evaluated using a fluorescence Thioflavin S (ThS) assay in cellulo, which monitors ThS fluorescence in the presence of β-sheet-rich structures, such as Aβ and tau protein aggregates. This method, based on recombinant Escherichia coli (E. coli) bacteria overexpressing insoluble aggregates, offers a simple and cost-effective approach to model aggregation processes in mammalian systems and has been validated for use in drug discovery studies. , Compounds were tested at a screening concentration of 50 μM for their ability to inhibit Aβ42 aggregation. The results, summarized in Table , reveal distinct antiaggregating profiles between series A and B, which are once again influenced by their structural differences.
42 Amino acid Aβ42 was cloned and overexpressed in E. coli BL21 (DE3) competent cells using the pET vector harboring the DNA sequence of Aβ42. Due to the addition of the initiation codon ATG preceding genes, the resulting overexpressed peptide contained an additional methionine residue at its N-terminus. For the preparation of overnight cultures, a colony of BL21 (DE3) cells carrying the plasmid for expression was inoculated in 10 mL of M9 minimal medium supplemented with 50 μg mL^–1 kanamycin at 37 °C. Subsequently, a 1:500 dilution of the overnight culture was added to fresh M9 minimal medium containing 50 μg mL^–1 kanamycin and 25 μM ThS. The bacterial culture was then incubated at 37 °C with agitation at 250 rpm. Upon reaching an OD600 of 0.6, 980 μL of the culture was transferred into 1.5 mL Eppendorf tubes, each containing 10 μL of the compound to be tested dissolved in DMSO and 10 μL of 100 mM isopropyl 1-thio-β-D-galactopyranoside (IPTG) or, alternatively, 10 μL of water for the noninduced controls. The final compound concentration was adjusted to […]. The samples were allowed to grow overnight at 37 °C with agitation at 1400 rpm using a Thermomixer (Eppendorf). Negative controls, representing maximum amyloid presence, utilized free DMSO.
ThS (T1892) and all other chemical reagents were purchased from Sigma (St. Louis, MO). Stock solutions of ThS (250 μM) were prepared using doubly distilled water purified via a Milli-Q system (Millipore). For the fluorescence assay, ThS spectra were recorded utilizing an AmincoBowman series 2 luminescence spectrophotometer (Aminco-Bowman AB2, SLM Aminco, Rochester, NY) within the range of 460 to 600 nm at a temperature of 25 °C. The excitation wavelength employed was 445 nm, with slit widths set at 4 nm. The emission at 485 nm, corresponding to the ThS peak observed in the presence of amyloids, was recorded. To standardize ThS fluorescence relative to bacterial concentration in both in vitro and cell-based assays, the OD600 was determined using a Shimadzu UV-2401 PC UV–vis spectrophotometer. Fluorescence normalization was executed by setting the ThS fluorescence of bacterial cells expressing the peptide or protein in the absence of the drug as 100%, while that of bacterial cells not expressing the peptide or protein was established as 0%.

[1] = target: eeAChE (Electrophorus electricus AChE) (Electrophorus electricus, UniProt O42275); test: Cholinesterase inhibition assay (modified Ellman's method), eeAChE; type: biochemical; details: mean ± SEM, n = 3; n.a = nonactive; IC50 determined only if inhibition higher than 50% at 20 μM
Text: Compound series A and B were initially screened for their cholinesterase activity against eeAChE (Electrophorus electricus AChE) and eqBChE (equine serum butyrylcholinesterase), using an adaptation of the Ellman’s method. […]. […] Similarly, replacing the terminal triple bond in 7l with a nitrile group reduced its activity, while replacing the O-propargyl group with an N,N-dipropargyl group in 10 enhanced the inhibition of both enzymes, particularly BChE (Table ). The installation of an additional aryl ring in 7o further improved AChE inhibition, slightly increasing selectivity toward this enzyme. […]. […]. […]. The inhibitory activity of the synthesized compounds toward eeAChE and eqBChE was evaluated spectrophotometrically through a 96-well microplate modified Ellman’s method. The solutions of both enzymes were prepared as 0.025 U/mL in phosphate buffer at pH 7, from stock solutions of 5.05 U/mL and 7.50 U/mL, respectively. The stock solutions for the target compounds (0.1 M) were prepared in dimethyl sulfoxide (DMSO). […] The reaction mixture was prepared with 100 μL of the enzyme (eeAChE or eqBChE) and 50 μL of the test compound (or DMSO/water, not exceeding 0.2% of DMSO in the wells; i.e blank samples). After 5 min of the preincubation period at 37 °C, 50 μL of ATChI or BTChI and 50 μL of DTNB were added to each well, thus initiating the enzymatic reaction. The absorbance values were measured at 415 nm, for a total of 7.5 min, at every 2.5 min, using a microplate reader (Synergy multimode reader; BioTek). […]. All experiments were performed in triplicate.

T1 sequence (P05067 672-713): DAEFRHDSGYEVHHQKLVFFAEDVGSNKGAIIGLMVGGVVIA
eeAChE (Electrophorus electricus AChE), sequence (O42275 24-633): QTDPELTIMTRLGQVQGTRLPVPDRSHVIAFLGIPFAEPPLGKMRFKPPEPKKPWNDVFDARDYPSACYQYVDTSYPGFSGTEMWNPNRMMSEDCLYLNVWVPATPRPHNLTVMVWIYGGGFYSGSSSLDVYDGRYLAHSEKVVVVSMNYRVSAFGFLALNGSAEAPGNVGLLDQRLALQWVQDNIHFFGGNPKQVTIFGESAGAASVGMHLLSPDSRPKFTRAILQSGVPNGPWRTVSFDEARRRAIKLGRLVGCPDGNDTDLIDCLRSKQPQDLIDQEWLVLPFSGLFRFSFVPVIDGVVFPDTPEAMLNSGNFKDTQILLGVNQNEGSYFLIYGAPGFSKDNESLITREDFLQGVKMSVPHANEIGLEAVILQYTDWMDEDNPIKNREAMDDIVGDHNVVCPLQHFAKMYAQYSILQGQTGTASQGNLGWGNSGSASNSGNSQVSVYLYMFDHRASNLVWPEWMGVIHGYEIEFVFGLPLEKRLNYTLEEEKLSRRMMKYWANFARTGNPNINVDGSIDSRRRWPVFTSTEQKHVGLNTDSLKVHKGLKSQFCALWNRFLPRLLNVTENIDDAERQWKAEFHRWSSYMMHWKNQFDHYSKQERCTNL

Row | SMILES | inhibition at 50 µM (Aβ42 aggregation) [%] | IC50 [1] [nM]
1 | O=c1c2ccccc2oc2cc3c(cc12)COc1ccc2ccccc2c1-3 [Compound 12a] | 43 ± 3.9 | –
2 | O=c1c2ccccc2oc2cc3c(cc12)COc1ccc(Br)cc1-3 [Compound 11g, 2-Bromo-6H,8H-chromeno[3,4-b]xanthen-8-one] | 36 ± 4.8 | –
3 | COc1cccc2oc3cc4c(cc3c(=O)c12)COc1ccccc1-4 [Compound 11c, 9-Methoxy-6H,8H-chromeno[3,4-b]xanthen-8-one] | 34 ± 4.4 | –
4 | Cc1ccc(C#CCOc2ccccc2/C=C/c2cc(=O)c3ccccc3o2)cc1 [Compound 7o, (E)-2-(2-{[3-(4-methylphenyl)prop-2-yn-1-yl]oxy}styryl)-4H-chromen-4-one] | 37 ± 2 | 2900 ± 500
5 | C#CCOc1ccccc1/C=C/c1cc(=O)c2c(OC)cc(OC)cc2o1 [Compound 7e, (E)-5,7-Dimethoxy-2-[2-(prop-2-yn-1-yloxy)styryl]-4H-chromen-4-one] | 24 ± 1.7 | –
6 | C#CCOc1ccc(Cl)cc1/C=C/c1cc(=O)c2ccccc2o1 [Compound 7j, (E)-2-[5-Chloro-2-(prop-2-yn-1-yloxy)styryl]-4H-chromen-4-one] | 11 ± 2.3 | –
7 | C#CCOc1ccc(OC(F)(F)F)cc1/C=C/c1cc(=O)c2ccccc2o1 [Compound 7h, (E)-2-[2-(Prop-2-yn-1-yloxy)-5-(trifluoromethoxy)styryl]-4H-chromen-4-one] | 11 ± 2 | –
8 | C#CCOc1ccc(OC)cc1/C=C/c1cc(=O)c2ccccc2o1 [Compound 7f, (E)-2-[5-Methoxy-2-(prop-2-yn-1-yloxy)styryl]-4H-chromen-4-one] | 15 ± 2.7 | –
9 | C#CCOc1c(Br)cc(Cl)cc1/C=C/c1cc(=O)c2ccc(OC)cc2o1 [Compound 7w, (E)-2-[3-Bromo-5-chloro-2-(prop-2-yn-1-yloxy)styryl]-7-methoxy-4H-chromen-4-one] | 35 ± 3 | –
10 | COc1ccc(C#CCOc2ccccc2/C=C/c2cc(=O)c3ccccc3o2)cc1 [Compound 7n, (E)-2-(2-{[3-(4-Methoxyphenyl)prop-2-yn-1-yl]oxy}styryl)-4H-chromen-4-one] | 34 ± 3.3 | –
11 | C#CCOc1ccc(Br)cc1/C=C/c1cc(=O)c2ccccc2o1 [Compound 7g, (E)-2-[5-Bromo-2-(prop-2-yn-1-yloxy)styryl]-4H-chromen-4-one] | 25 ± 4.6 | –
12 | C#CCOc1ccc(OC(F)(F)F)cc1/C=C/c1cc(=O)c2ccc(OC)cc2o1 [Compound 7t, (E)-7-Methoxy-2-[2-(prop-2-yn-1-yloxy)-5-(trifluoromethoxy)styryl]-4H-chromen-4-one] | 20 ± 2.3 | –
13 | N#CCOc1ccccc1/C=C/c1cc(=O)c2ccccc2o1 [Compound 7l, (E)-2-{2-[2-(4-oxo-4H-chromen-2-yl)vinyl]phenoxy}acetonitrile] | 34 ± 5.2 | –
14 | C#CCOc1ccc(OC)cc1/C=C/c1cc(=O)c2ccc(OC)cc2o1 [Compound 7p, (E)-7-Methoxy-2-[5-methoxy-2-(prop-2-yn-1-yloxy)styryl]-4H-chromen-4-one] | 11 ± 1.5 | –
15 | C#CCOc1ccccc1/C=C/c1cc(=O)c2c(OC)cccc2o1 [Compound 7c, (E)-5-Methoxy-2-[2-(prop-2-yn-1-yloxy)styryl]-4H-chromen-4-one] | 33 ± 2.2 | –
16 | C#CCOc1ccc(OC)cc1/C=C/c1cc(=O)c2c(OC)cc(OC)cc2o1 [Compound 7s, (E)-5,7-Dimethoxy-2-[5-methoxy-2-(prop-2-yn-1-yloxy)styryl]-4H-chromen-4-one] | 50 ± 1.6 | –
17 | C#CCOc1ccc(F)cc1/C=C/c1cc(=O)c2ccc(OC)cc2o1 [Compound 7u, (E)-2-[5-Fluoro-2-(prop-2-yn-1-yloxy)styryl]-7-methoxy-4H-chromen-4-one] | 28 ± 3.5 | –

Row | SMILES | inhibition at 50 µM (Aβ42 aggregation) [%] | IC50 [1] [nM]
18 | C#CCOc1ccc2ccccc2c1/C=C/c1cc(=O)c2ccccc2o1 [Compound 8a] | 47 ± 3.9 | –
19 | COc1ccc2c(=O)c3cc4c(cc3oc2c1)-c1cc(OC(F)(F)F)ccc1OC4 [Compound 11p, 11-Methoxy-2-(trifluoromethoxy)-6H,8H-chromeno[3,4-b]xanthen-8-one] | 29 ± 7.6 | –
20 | COc1ccc2c(c1)-c1cc3oc4c(OC)c(OC)ccc4c(=O)c3cc1CO2 [Compound 11n, 2,11,12-Trimethoxy-6H,8H-chromeno[3,4-b]xanthen-8-one] | 34 ± 4 | –
21 | C#CCOc1ccccc1/C=C/c1cc(=O)c2ccc(OC)c(OC)c2o1 [Compound 7d, (E)-7,8-Dimethoxy-2-[2-(prop-2-yn-1-yloxy)styryl]-4H-chromen-4-one] | 28 ± 1.7 | 2400 ± 400
22 | O=c1c2ccccc2oc2cc3c(cc12)COc1ccc(Cl)cc1-3 [Compound 11j, 2-Chloro-6H,8H-chromeno[3,4-b]xanthen-8-one] | 45 ± 7.4 | –
23 | C#CCOc1ccc(F)cc1/C=C/c1cc(=O)c2ccccc2o1 [Compound 7i, (E)-2-[5-Fluoro-2-(prop-2-yn-1-yloxy)styryl]-4H-chromen-4-one] | 22 ± 4.8 | –
24 | C#CCOc1c(Br)cc(Cl)cc1/C=C/c1cc(=O)c2ccccc2o1 [Compound 7k, (E)-2-[3-Bromo-5-chloro-2-(prop-2-yn-1-yloxy)styryl]-4H-chromen-4-one] | 24 ± 3 | –
25 | COc1ccc2c(=O)c3cc4c(cc3oc2c1)-c1ccccc1OC4 [Compound 11b, 11-Methoxy-6H,8H-chromeno[3,4-b]xanthen-8-one] | 22 ± 2.7 | 3900 ± 900
26 | O=c1c2ccccc2oc2cc3c(cc12)COc1ccccc1-3 [Compound 11a, 6H,8H-Chromeno[3,4-b]xanthen-8-one] | 15 ± 4.6 | 2100 ± 200
27 | COc1ccc2c(c1)-c1cc3oc4cc(OC)cc(OC)c4c(=O)c3cc1CO2 [Compound 11o, 2,9,11-Trimethoxy-6H,8H-chromeno[3,4-b]xanthen-8-one] | 33 ± 4.3 | –
28 | C#CCOc1ccccc1/C=C/c1cc(=O)c2ccccc2o1 [Compound 7a, (E)-2-[2-(Prop-2-yn-1-yloxy)styryl]-4H-chromen-4-one] | 38 ± 6.2 | 9500 ± 300
29 | C#CCOc1ccc(Cl)cc1/C=C/c1cc(=O)c2ccc(OC)cc2o1 [Compound 7v, (E)-2-[5-Chloro-2-(prop-2-yn-1-yloxy)styryl]-7-methoxy-4H-chromen-4-one] | 17 ± 2 | –
30 | C#CCOc1ccc(OC)cc1/C=C/c1cc(=O)c2ccc(OC)c(OC)c2o1 [Compound 7r] | 40 ± 5.6 | –
31 | O=c1cc(/C=C/c2ccccc2OCC#Cc2ccccc2)oc2ccccc12 [Compound 7m, (E)-2-{2-[(3-Phenylprop-2-yn-1-yl)oxy]styryl}-4H-chromen-4-one] | 28 ± 3.8 | –
32 | C#CCOc1ccc2ccccc2c1/C=C/c1cc(=O)c2ccc(OC)cc2o1 [Compound 8b] | 32 ± 4.3 | –
33 | C#CCOc1ccccc1/C=C/c1cc(=O)c2ccc(OC)cc2o1 [Compound 7b, (E)-7-Methoxy-2-[2-(prop-2-yn-1-yloxy)styryl]-4H-chromen-4-one] | 23 ± 1.8 | –
